Laboratory results reported in US20260274892A1, “MACROCYCLIC BROAD SPECTRUM ANTIBIOTICS” (RQx Pharmaceuticals, Inc., priority 2017, published 2026).

Legend:
[1] = test system: Methicillin Resistant Staphylococcus aureus strain USA 200; experiment: Minimum inhibitory concentration (MIC), CLSI broth micro-dilution, S. aureus; type: cell-based; details: Staphylococcus aureus, MRSA / USA200, MRSA USA 200, cation adjusted Mueller Hinton Broth + 0.002% Tween-80, 35° C., 22 hours
In short: (§1)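 Antibacterial potency is measured as MIC by the CLSI broth dilution method. Bacteria at OD600 0.0005 in Tween-80-supplemented cation-adjusted Mueller Hinton broth face ten twofold compound dilutions for 22 h at 35° C.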

[2] = test system: Escherichia coli ATCC 25922; experiment: Minimum inhibitory concentration (MIC), CLSI broth micro-dilution, E. coli; type: cell-based; details: Escherichia coli
In short: as §1

[3] = ATCC25922, 22 h, Table 6, cation adjusted Mueller Hinton Broth + 0.002% Tween-80, 35° C.

Compound | MIC ([1]; Table 6) [µM] | MIC [2, 3] [µM] | MIC ([1]; Table 8) [µM] | MIC ([2]; ATCC25922, 22 h, Table 8, cation adjusted Mueller Hinton Broth + 0.002% Tween-80, 35° C.) [µM] | MIC ([2]; ATCC25922, Table 6, cation adjusted Mueller Hinton Broth + 0.002% Tween-80, 35° C., 22 hours) [µM]
Cc1nc(-c2ccc(CC3CCCC3)cc2)nc(C)c1C(=O)N[C@@H](CCN)C(=O)N(C)[C@@H]1C(=O)N[C@@H](C)C(=O)N[C@H](C(=O)NCC#N)Cc2ccc(OCCN)c(c2)-c2cc1ccc2OCCN (racemic) [Compound 275, rac-(8S,11S,14S)-3,18-bis(2-aminoethoxy)-N-(cyanomethyl)-11-methyl-14-[methyl-[rac-(2S)-4-amino-2-[[2-[4-(cyclopentylmethyl)phenyl]-4,6-dimethyl-pyrimidine-5-carbonyl]amino]butanoyl]amino]-10,13-dioxo-9,12-diazatricyclo[13.3.1.12,6]icosa-1(18),2(20),3,5,15(19),16-hexaene-8-carboxamide] | 0.012 | 0.094 | – | – | –
Cc1nc(-c2ccc(C(C)(C)C)cc2)nc(O)c1C(=O)N[C@@H](CCN)C(=O)N(C)[C@@H]1C(=O)N[C@@H](C)C(=O)N[C@H](C(=O)NCC#N)Cc2ccc(OCCN)c(c2)-c2cc1ccc2OCCN (racemic) [Compound 423, rac-(8S,11S,14S)-3,18-bis(2-aminoethoxy)-N-(cyanomethyl)-11-methyl-14-[methyl-[rac-(2S)-4-amino-2-[[2-(4-tert-butylphenyl)-4-hydroxy-6-methyl-pyrimidine-5-carbonyl]amino]butanoyl]amino]-10,13-dioxo-9,12-diazatricyclo[13.3.1.12,6]icosa-1(18),2(20),3,5,15(19),16-hexaene-8-carboxamide] | 0.13 | 2 | – | – | –
CCCCCc1ccc(-c2nc(C)c(C(=O)N[C@@H](CCN)C(=O)N(C)[C@@H]3C(=O)N[C@@H](C)C(=O)N[C@H](C(=O)NCC#N)Cc4ccc(O)c(c4)-c4cc3ccc4OCCN)c(C)n2)cc1 (racemic) [Compound 521, rac-(8S,11S,14S)-18-(2-aminoethoxy)-N-(cyanomethyl)-3-hydroxy-11-methyl-14-[methyl-[rac-(2S)-4-amino-2-[[4,6-dimethyl-2-(4-pentylphenyl)pyrimidine-5-carbonyl]amino]butanoyl]amino]-10,13-dioxo-9,12-diazatricyclo[13.3.1.12,6]icosa-1(18),2(20),3,5,15(19),16-hexaene-8-carboxamide] | 0.047 | 0.2 | – | – | –
Cc1cc(-c2ccc(OC(C)C)cc2)nc(C)c1C(=O)N[C@@H](CCN)C(=O)N(C)[C@@H]1C(=O)N[C@@H](C)C(=O)N[C@H](C(=O)NCC#N)Cc2ccc(OCCN)c(c2)-c2cc1ccc2OCCN (racemic) [Compound 360, rac-(8S,11S,14S)-3,18-bis(2-aminoethoxy)-N-(cyanomethyl)-11-methyl-14-[methyl-[rac-(2S)-4-amino-2-[[6-(4-isopropoxyphenyl)-2,4-dimethyl-pyridine-3-carbonyl]amino]butanoyl]amino]-10,13-dioxo-9,12-diazatricyclo[13.3.1.12,6]icosa-1(18),2(20),3,5,15(19),16-hexaene-8-carboxamide] | 0.066 | 0.26 | – | – | –
C[C@@H]1NC(=O)[C@@H](N(C)C(=O)[C@H](CCN)NC(=O)c2cnc(-c3ccc(C(C)(C)C)cc3)c(=O)n2C)c2ccc(OCCN)c(c2)-c2cc(ccc2OCCN)C[C@@H](C(=O)NCC#N)NC1=O (racemic) [Compound 386, rac-(8S,11S,14S)-3,18-bis(2-aminoethoxy)-N-(cyanomethyl)-11-methyl-14-[methyl-[rac-(2S)-4-amino-2-[[5-(4-tert-butylphenyl)-1-methyl-6-oxo-pyrazine-2-carbonyl]amino]butanoyl]amino]-10,13-dioxo-9,12-diazatricyclo[13.3.1.12,6]icosa-1(18),2(20),3,5,15(19),16-hexaene-8-carboxamide] | 0.75 | 8 | – | – | –
Cc1nc(C(F)(F)c2ccc(C(C)(C)C)cc2)nc(C)c1C(=O)N[C@@H](CCN)C(=O)N(C)[C@@H]1C(=O)N[C@@H](C)C(=O)N[C@H](C(=O)NCC#N)Cc2ccc(OCCN)c(c2)-c2cc1ccc2OCCN (racemic) [Compound 289, rac-(8S,11S,14S)-3,18-bis(2-aminoethoxy)-N-(cyanomethyl)-11-methyl-14-[methyl-[rac-(2S)-4-amino-2-[[2-[(4-tert-butylphenyl)-difluoro-methyl]-4,6-dimethyl-pyrimidine-5-carbonyl]amino]butanoyl]amino]-10,13-dioxo-9,12-diazatricyclo[13.3.1.12,6]icosa-1(18),2(20),3,5,15(19),16-hexaene-8-carboxamide] | 0.016 | 0.75 | – | – | –
CCCCCCCCCCCCCC(=O)N1C[C@H](N)CC1C(=O)N(C)[C@@H]1C(=O)N[C@@H](C)C(=O)N[C@H](C(=O)NCC#N)Cc2ccc(OCCN)c(c2)-c2cc1ccc2OCCN (mixture of isomers) [Compound 482, rac-(8S,11S,14S)-3,18-bis(2-aminoethoxy)-14-[(4-amino-1-tetradecanoyl-pyrrolidine-2-carbonyl)-methyl-amino]-N-(cyanomethyl)-11-methyl-10,13-dioxo-9,12-diazatricyclo[13.3.1.12,6]icosa-1(18),2(20),3,5,15(19),16-hexaene-8-carboxamide] | 0.036 | 0.24 | – | – | –
CCCCCOc1ccc(-c2nc(C)c(C(=O)N[C@@H](CCN)C(=O)N(C)[C@@H]3C(=O)N[C@@H](C)C(=O)N[C@H](C(=O)O)Cc4ccc(OCCN)c(c4)-c4cc3ccc4O)c(C)n2)cc1 (racemic) [Compound 642, rac-(8S,11S,14S)-3-(2-aminoethoxy)-18-hydroxy-11-methyl-14-[methyl-[rac-(2S)-4-amino-2-[[4,6-dimethyl-2-(4-pentoxyphenyl)pyrimidine-5-carbonyl]amino]butanoyl]amino]-10,13-dioxo-9,12-diazatricyclo [13.3.1.12,6]icosa-1(18),2(20),3,5,15(19), 16-hexaene-8-carboxylic acid] | – | – | 0.21 | 0.23 | –
Cc1nc(-c2ccc(OC3CCCCC3)cc2)nc(C)c1C(=O)N[C@@H](CCC(N)=O)C(=O)N(C)[C@@H]1C(=O)N[C@@H](C)C(=O)N[C@H](C(=O)NCC#N)Cc2ccc(OCCN)c(c2)-c2cc1ccc2OCCN (racemic) [Compound 505, rac-(2S)-2-[[2-[4-(cyclohexoxy)phenyl]-4,6-dimethyl-pyrimidine-5-carbonyl]amino]-N-methyl-N-[rac-(7S,10S,13S)-3,18-bis(2-aminoethoxy)-13-(cyanomethylcarbamoyl)-10-methyl-8,11-dioxo-9,12-diazatricyclo[13.3.1.12,6]icosa-1(19),2,4,6(20),15,17-hexaen-7-yl]pentanediamide] | 0.094 | 1.5 | – | – | –
Cc1nc(-c2ccc(N3CCCCCC3)cc2)nc(C)c1C(=O)N[C@@H](CCN)C(=O)N(C)[C@@H]1C(=O)N[C@@H](C)C(=O)N[C@H](C(=O)NCC#N)Cc2ccc(OCCN)c(c2)-c2cc1ccc2OCCN (racemic) [Compound 325, rac-(8S,11S,14S)-3,18-bis(2-aminoethoxy)-N-(cyanomethyl)-11-methyl-14-[methyl-[rac-(2S)-4-amino-2-[[2-[4-(azepan-1-yl)phenyl]-4,6-dimethyl-pyrimidine-5-carbonyl]amino]butanoyl]amino]-10,13-dioxo-9,12-diazatricyclo[13.3.1.12,6]icosa-1(18),2(20),3,5,15(19),16-hexaene-8-carboxamide] | 0.016 | 0.13 | – | – | –
Cc1nc(C#CC(C)(C)C)ccc1C(=O)N[C@@H](CCN)C(=O)N(C)[C@@H]1C(=O)N[C@@H](C)C(=O)N[C@H](C(=O)NCC#N)Cc2ccc(OCCN)c(c2)-c2cc1ccc2OCCN (racemic) [Compound 213, rac-(8S,11S,14S)-3,18-bis(2-aminoethoxy)-N-(cyanomethyl)-11-methyl-14-[methyl-[rac-(2S)-4-amino-2-[[6-(3,3-dimethylbut-1-ynyl)-2-methyl-pyridine-3-carbonyl]amino]butanoyl]amino]-10,13-dioxo-9,12-diazatricyclo[13.3.1.12,6]icosa-1(18),2(20),3,5,15(19),16-hexaene-8-carboxamide] | 0.28 | 1.1 | – | – | –
CCCCCOc1ccc(-c2nc(C)c(C(=O)N[C@@H](CCN)C(=O)N(C)[C@@H]3C(=O)N[C@@H](C)C(=O)N[C@H](C(=O)NCC#N)Cc4ccc(OCCN)c(c4)-c4cc3ccc4O)c(C)n2)cc1 (racemic) [Compound 536, rac-(8S,11S,14S)-3-(2-aminoethoxy)-N-(cyanomethyl)-18-hydroxy-11-methyl-14-[methyl-[rac-(2S)-4-amino-2-[[4,6-dimethyl-2-(4-pentoxyphenyl)pyrimidine-5-carbonyl]amino]butanoyl]amino]-10,13-dioxo-9,12-diazatricyclo[13.3.1.12,6]icosa-1(18),2(20),3,5,15(19),16-hexaene-8-carboxamide] | 0.016 | 0.13 | – | – | –
COCCOc1ccc(-c2nc(C)c(C(=O)N[C@@H](CCN)C(=O)N(C)[C@@H]3C(=O)N[C@@H](C)C(=O)N[C@H](C(=O)NCC#N)Cc4ccc(OCCN)c(c4)-c4cc3ccc4OCCN)c(C)n2)cc1 (racemic) [Compound 333, rac-(8S,11S,14S)-3,18-bis(2-aminoethoxy)-N-(cyanomethyl)-11-methyl-14-[methyl-[rac-(2S)-4-amino-2-[[2-[4-(2-methoxyethoxy)phenyl]-4,6-dimethyl-pyrimidine-5-carbonyl]amino]butanoyl]amino]-10,13-dioxo-9,12-diazatricyclo[13.3.1.12,6]icosa-1(18),2(20),3,5,15(19),16-hexaene-8-carboxamide] | 1 | – | – | – | 2
